Series [1] concerns metastatic bladder cancer. The experiment in a line: Patient with tumor from metastatic bladder cancer, PET scan and patient report. It is filed as in vivo, human. Particulars: patient bearing a tumor from metastatic bladder cancer. Here is the method: In a particular example, a patient bearing a tumor resulting from metastatic bladder cancer failed monotherapy with cisplatin. Subsequently, the patient was treated daily with 100 mg cyclophosphamide together with a composition containing 2 g of quercetin. […] Of note, this patient typically would not have been treated further after failing the monotherapy with cisplatin.

Series [2] in a line: Stabilization of quercetin by vitamin B3 and/or vitamin C. Type of series: physicochemical. To be noted: in the presence of one or both of vitamin B3 and vitamin C.

With `N.N.[Cl][Pt][Cl]` [cisplatin], the outcome of monotherapy in series [1] is listed as “failed”. On to `O=c1c(O)c(-c2ccc(O)c(O)c2)oc2cc(O)cc(O)c12` [quercetin], for which the stability of quercetin result in series [2] is recorded as “stabilized”.

The values are drawn from patent US20220000835A1, “METHOD FOR TREATING CANCER WITH A COMBINATION OF QUERCETIN AND A CHEMOTHERAPY AGENT” (Quercis Pharma A.G., priority 2014, published 2022).
